Results reported in the supplement of paper PMC6045584.
± gives the standard deviation of the averaged measurements.

Key:
NUTLIN3 = compound: COc1ccc(C2=N[C@@H](c3ccc(Cl)cc3)[C@@H](c3ccc(Cl)cc3)N2C(=O)N2CCNC(=O)C2)c(OC(C)C)c1 [NUTLIN3]; test: surviving fraction relative to DMSO-only wells; higher = less growth inhibition; settings: exposure time: 5 days
Method in brief: (§1)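 A line counted only if its three screens reached replicate Pearson r >0.7 and median Z' >0.3. Tumour cells in log phase were seeded at 250–500 per well in 384-well plates and, after 24 hours, kept in continuous contact with inhibitors at 0.5, 1, 5, 10, 50, 100, 500 and 1000 nM for five days. Surviving fraction was taken from CellTiter-Glo luminescence relative to the median of DMSO-only wells.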

DECITABINE = compound: Nc1ncn([C@H]2C[C@H](O)[C@@H](CO)O2)c(=O)n1 [DECITABINE]; test: as above; settings: exposure time: 5 days
Method in brief: as §1

| Test System | surviving fraction (NUTLIN3; 0.5 nM) | surviving fraction (NUTLIN3; 1 nM) | surviving fraction (NUTLIN3; 5 nM) | surviving fraction (NUTLIN3; 10 nM) | surviving fraction (NUTLIN3; 50 nM) | surviving fraction (NUTLIN3; 100 nM) | surviving fraction (NUTLIN3; 500 nM) | surviving fraction (NUTLIN3; 1000 nM) | surviving fraction (DECITABINE; 0.5 nM) | surviving fraction (DECITABINE; 1 nM) | surviving fraction (DECITABINE; 5 nM) | surviving fraction (DECITABINE; 10 nM) | surviving fraction (DECITABINE; 50 nM) | surviving fraction (DECITABINE; 100 nM) | surviving fraction (DECITABINE; 500 nM) | surviving fraction (DECITABINE; 1000 nM) |
| --- | --- | --- | --- | --- | --- | --- | --- | --- | --- | --- | --- | --- | --- | --- | --- | --- |
| T47D BREAST | 1.01 ± 0.029 | 0.993 ± 0.019 | 0.992 ± 0.043 | 1.01 ± 0.051 | 1.07 ± 0.029 | 1.08 ± 0.033 | 0.965 ± 0.075 | 0.937 ± 0.024 | 1.03 ± 0.049 | 1.06 ± 0.035 | 1.05 ± 0.029 | 1.04 ± 0.028 | 1.12 ± 0.049 | 1.08 ± 0.024 | 1.04 ± 0.049 | 1.06 ± 0.057 |
| CHLA90 AUTONOMIC GANGLIA | 1.02 ± 0.018 | 1.05 ± 0.043 | 1 ± 0.039 | 0.923 ± 0.025 | 0.987 ± 0.049 | 1.01 ± 0.019 | 1.06 ± 0.022 | 1.02 ± 0.066 | 0.953 ± 0.073 | 0.934 ± 0.085 | 0.953 ± 0.06 | 0.902 ± 0.017 | 1.01 ± 0.12 | 0.994 ± 0.099 | 0.984 ± 0.079 | 1 ± 0.063 |
| SCC47 HEADNECK | 1.08 ± 0.082 | 1.03 ± 0.023 | 1.14 ± 0.026 | 1.135 ± 0.0096 | 1.13 ± 0.051 | 1.16 ± 0.088 | 1.07 ± 0.052 | 1.14 ± 0.099 | 1.07 ± 0.084 | 1.08 ± 0.13 | 1.08 ± 0.012 | 1.09 ± 0.067 | 1.03 ± 0.058 | 1.03 ± 0.03 | 0.973 ± 0.028 | 0.863 ± 0.1 |
| CASKI CERVIX | 0.945 ± 0.0061 | 0.899 ± 0.053 | 0.9873 ± 0.0035 | 0.979 ± 0.027 | 1.04 ± 0.074 | 1.05 ± 0.026 | 0.972 ± 0.042 | 0.988 ± 0.05 | 0.891 ± 0.044 | 0.919 ± 0.096 | 0.858 ± 0.056 | 0.898 ± 0.095 | 0.484 ± 0.033 | 0.368 ± 0.042 | 0.214 ± 0.017 | 0.209 ± 0.022 |
| HU09 BONE | 1.03 ± 0.17 | 0.933 ± 0.1 | 1.02 ± 0.14 | 1.03 ± 0.059 | 1.04 ± 0.069 | 1.08 ± 0.11 | 1.04 ± 0.14 | 1.03 ± 0.085 | 0.982 ± 0.083 | 0.968 ± 0.081 | 1.12 ± 0.13 | 0.997 ± 0.072 | 1.17 ± 0.13 | 1.04 ± 0.027 | 0.95 ± 0.084 | 0.847 ± 0.034 |
| SAOS2 BONE | 1.16 ± 0.028 | 0.981 ± 0.037 | 1.13 ± 0.043 | 1.09 ± 0.048 | 1.15 ± 0.017 | 1.2 ± 0.029 | 1.12 ± 0.033 | 1.043 ± 0.0023 | 1.09 ± 0.027 | 1.11 ± 0.037 | 1.1 ± 0.027 | 1.02 ± 0.042 | 1.01 ± 0.051 | 0.88 ± 0.07 | 0.742 ± 0.057 | 0.581 ± 0.12 |
| SUM149 BREAST | 1.03 ± 0.098 | 1.12 ± 0.052 | 1.18 ± 0.053 | 1.15 ± 0.085 | 1.08 ± 0.075 | 1.13 ± 0.11 | 1.04 ± 0.047 | 1.01 ± 0.092 | 1.11 ± 0.11 | 1.03 ± 0.13 | 0.845 ± 0.047 | 0.807 ± 0.09 | 0.366 ± 0.0027 | 0.359 ± 0.022 | 0.261 ± 0.0076 | 0.245 ± 0.012 |
| SYO1 SYNOVIAL | 1.01 ± 0.039 | 0.997 ± 0.038 | 0.993 ± 0.019 | 0.979 ± 0.036 | 0.977 ± 0.042 | 0.934 ± 0.048 | 0.588 ± 0.026 | 0.468 ± 0.012 | 0.991 ± 0.024 | 0.998 ± 0.021 | 0.933 ± 0.021 | 0.917 ± 0.022 | 0.663 ± 0.015 | 0.629 ± 0.013 | 0.439 ± 0.02 | 0.383 ± 0.0062 |
| DU4475 BREAST | 0.825 ± 0.3 | 0.909 ± 0.2 | 1 ± 0.52 | 1.13 ± 0.49 | 0.965 ± 0.39 | 1.12 ± 0.51 | 0.832 ± 0.42 | 0.673 ± 0.47 | 0.998 ± 0.059 | 0.872 ± 0.002 | 0.774 ± 0.11 | 0.782 ± 0.074 | 0.537 ± 0.066 | 0.415 ± 0.054 | 0.194 ± 0.015 | 0.167 ± 0.0061 |
| JIMT1 BREAST | 0.985 ± 0.011 | 0.976 ± 0.018 | 1.01 ± 0.037 | 0.9965 ± 0.0076 | 1.08 ± 0.037 | 1.06 ± 0.016 | 1.06 ± 0.043 | 1.04 ± 0.018 | 1.04 ± 0.021 | 0.999 ± 0.032 | 1 ± 0.018 | 0.9743 ± 0.0064 | 0.933 ± 0.038 | 0.819 ± 0.048 | 0.546 ± 0.036 | 0.471 ± 0.03 |
| ASKA SYNOVIAL | 1.04 ± 0.04 | 1.13 ± 0.039 | 1.2 ± 0.055 | 1.03 ± 0.015 | 1.02 ± 0.064 | 1.05 ± 0.041 | 0.748 ± 0.035 | 0.512 ± 0.014 | 1.04 ± 0.07 | 1.01 ± 0.085 | 1.04 ± 0.026 | 1.03 ± 0.043 | 1.03 ± 0.067 | 0.952 ± 0.079 | 0.711 ± 0.075 | 0.6847 ± 0.0058 |
| H23 LUNG | 1.02 ± 0.062 | 1.01 ± 0.056 | 1.02 ± 0.034 | 1.04 ± 0.048 | 1.08 ± 0.055 | 1.09 ± 0.085 | 1.05 ± 0.044 | 0.912 ± 0.031 | 0.987 ± 0.028 | 0.985 ± 0.034 | 0.984 ± 0.033 | 0.899 ± 0.028 | 0.803 ± 0.036 | 0.721 ± 0.057 | 0.614 ± 0.077 | 0.562 ± 0.048 |
| SG27 HEADNECK | 1.01 ± 0.02 | 1.06 ± 0.12 | 0.998 ± 0.17 | 1.19 ± 0.19 | 0.998 ± 0.064 | 1 ± 0.062 | 0.788 ± 0.11 | 0.668 ± 0.06 | 1.17 ± 0.15 | 1.12 ± 0.06 | 1.15 ± 0.14 | 1.07 ± 0.14 | 1.2 ± 0.065 | 1.18 ± 0.14 | 1.11 ± 0.063 | 1.19 ± 0.16 |
| BT549 BREAST | 1.16 ± 0.13 | 1.07 ± 0.11 | 1.07 ± 0.063 | 1.12 ± 0.11 | 1.18 ± 0.1 | 1.07 ± 0.067 | 1.17 ± 0.13 | 1.08 ± 0.25 | 1.16 ± 0.084 | 1.16 ± 0.23 | 0.976 ± 0.095 | 1.06 ± 0.042 | 0.721 ± 0.051 | 0.724 ± 0.045 | 0.537 ± 0.064 | 0.452 ± 0.058 |
| SG43 HEADNECK | 1.11 ± 0.1 | 0.915 ± 0.071 | 0.928 ± 0.11 | 0.772 ± 0.064 | 0.877 ± 0.14 | 0.778 ± 0.24 | 0.806 ± 0.24 | 0.565 ± 0.1 | 1.02 ± 0.031 | 1.14 ± 0.16 | 0.953 ± 0.11 | 1.03 ± 0.48 | 0.835 ± 0.18 | 0.868 ± 0.2 | 0.812 ± 0.062 | 0.8 ± 0.049 |
| MDAMB157 BREAST | 0.957 ± 0.071 | 0.961 ± 0.093 | 0.97 ± 0.11 | 0.913 ± 0.12 | 1.02 ± 0.075 | 1 ± 0.039 | 0.999 ± 0.051 | 1.04 ± 0.074 | 0.998 ± 0.013 | 0.907 ± 0.046 | 0.922 ± 0.13 | 0.897 ± 0.065 | 0.632 ± 0.042 | 0.547 ± 0.058 | 0.41 ± 0.075 | 0.382 ± 0.059 |
| SJSA1 BONE | 1 ± 0.048 | 0.997 ± 0.041 | 1.05 ± 0.053 | 1 ± 0.064 | 1.03 ± 0.023 | 1.04 ± 0.02 | 0.823 ± 0.011 | 0.568 ± 0.027 | 0.512 ± 0.028 | 1.53 ± 0.038 | 1.63 ± 0.11 | 0.545 ± 0.031 | 1.55 ± 0.081 | 1.68 ± 0.022 | 1.73 ± 0.05 | 1.77 ± 0.053 |
| CAL120 BREAST | 0.921 ± 0.03 | 0.919 ± 0.051 | 0.933 ± 0.039 | 0.924 ± 0.02 | 0.9877 ± 0.005 | 0.9757 ± 0.0032 | 0.981 ± 0.012 | 0.977 ± 0.029 | 0.952 ± 0.053 | 0.929 ± 0.059 | 0.948 ± 0.072 | 0.952 ± 0.044 | 0.995 ± 0.038 | 0.967 ± 0.018 | 0.806 ± 0.017 | 0.717 ± 0.037 |
| SKBR3 BREAST | 0.795 ± 0.15 | 1.01 ± 0.2 | 0.869 ± 0.1 | 0.844 ± 0.18 | 0.952 ± 0.14 | 0.8987 ± 0.0035 | 0.91 ± 0.029 | 0.885 ± 0.077 | 1.02 ± 0.11 | 1.12 ± 0.0031 | 1.13 ± 0.035 | 0.959 ± 0.042 | 1.03 ± 0.094 | 1 ± 0.1 | 0.996 ± 0.017 | 0.931 ± 0.089 |
| A549 LUNG | 0.984 ± 0.03 | 0.996 ± 0.031 | 0.963 ± 0.026 | 0.953 ± 0.016 | 1.01 ± 0.084 | 1.02 ± 0.019 | 1.04 ± 0.053 | 1.08 ± 0.061 | 1.05 ± 0.027 | 1.031 ± 0.0066 | 1.03 ± 0.017 | 0.992 ± 0.016 | 1.03 ± 0.017 | 1.03 ± 0.03 | 1.02 ± 0.036 | 0.908 ± 0.031 |
